How the values were obtained:
[1] = set-up: method as in PMID 24085193; details: animals; takes 12–14 weeks to appear; cited from earlier work
DHCR24 [2] = details: cited from earlier work
DHCR24 [3] = target: T1, DHCR24 (Homo sapiens, UniProt Q15392); assay: Desmosterol assay in HepG2 cells; assay type: cell-based
T1 construct: endogenous in cells; host or cells: HepG2 cells
T1 sequence (Q15392 23-516): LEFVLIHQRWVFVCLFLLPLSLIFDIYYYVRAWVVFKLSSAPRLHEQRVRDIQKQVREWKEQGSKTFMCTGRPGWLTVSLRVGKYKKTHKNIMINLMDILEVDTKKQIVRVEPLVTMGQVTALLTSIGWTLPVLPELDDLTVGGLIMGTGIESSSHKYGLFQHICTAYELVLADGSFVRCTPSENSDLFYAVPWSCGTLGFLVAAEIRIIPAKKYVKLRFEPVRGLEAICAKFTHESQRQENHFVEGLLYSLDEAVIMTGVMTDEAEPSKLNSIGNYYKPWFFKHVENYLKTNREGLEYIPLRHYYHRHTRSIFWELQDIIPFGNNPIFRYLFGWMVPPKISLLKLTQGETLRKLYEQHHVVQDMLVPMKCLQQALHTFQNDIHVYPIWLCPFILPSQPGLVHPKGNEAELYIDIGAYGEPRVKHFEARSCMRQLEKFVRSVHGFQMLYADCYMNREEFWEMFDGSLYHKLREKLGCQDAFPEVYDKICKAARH
Protocol: HepG2 cells were grown in Eagle's minimal essential medium (EMEM) containing 10 % fetal bovine serum, penicillin (50 U/mL), and streptomycin (50 ug/mL) and plated at a density of 1 million cells/well in 6-well plates for the experiment. Four to five days after plating, the cells were washed with Hank’s balanced salt solution (HBSS), and compound treatment applied for 2 h in HBSS. At the end of the treatment, cells were collected, washed with PBS, and pelleted. Sterols were extracted from the cell pellet by adding 100 μL PBS and 3 mL ethylacetate (containing an internal standard of 1 mg/mL d-cholesterol). Tubes were vortexed for 20 min and centrifuged at 2000 × g for 20 min at room temperature. The organic phase was dried under a stream of nitrogen at 40 °C and the samples reconstituted in 65 % methanol. Liquid chromatography-tandem mass spectrometry (LC-MS/MS) analysis was performed using a Shimadzu 20-series UFLC (Shimadzu, Kyoto, Japan) and an API 5500 (Applied Biosystems, Foster City, CA, USA) with a Hypersil GOLD column (100X2.1 mM; Thermo Fisher).

Notch processing = assay: Notch reporter assay (HeLa 6xCBF1-Luc, NotchΔE); assay type: cell-based, human; details: overnight
Protocol: The wild-type CBF1 binding element was cloned in front of the SV40 promoter-driven luciferase reporter construct of pGL3pro (Promega, Madison, WI, USA) using the following oligonucleotides: • CBF1 Fw (5’→3’): […] • CBF1 Rv (5’→3’): […]
Oligonucleotides were phosphorylated using T4 polynucleotide kinase and annealed (by heating to 90 °C and cooling to room temperature in a buffer containing 0.1 M NaCl). Plasmid pGL3pro was cleaved with BglII and dephosphorylated using alkaline phosphatase. The oligonucleotide pair was then ligated using T4 ligase with the linearized plasmid DNA. A clone containing 6 copies of the CBF1 element in front of the SV40 promoter was chosen. The 6xCBF1-RE/SV40 promoter was excised from pGL3 using XhoI and HindIII, and the fragment transferred to the pGL4.17 [luc2/Neo] vector (Promega) was opened with the same restriction enzymes.
The full length human Notch in plasmid pCMV6-XL5 (Origene, Rockville, MD, USA) was used to amplify a truncated form of Notch (NotchΔE) containing the 20-amino-acid (a.a.) signal sequence followed by 5 a.a. […]
HeLa cells stably transfected with the 6xCBF1-Luc reporter were transiently transfected with the NotchΔE construct (4 μg DNA/10^6 cells) using Lipofectamine 2000 (Thermo Fisher, Waltham, MA, USA) in 6-well plates. […] Chemiluminescence was then read on an EnVision plate reader (Perkin Elmer).

Aβ42 = target: T2, Aβ42 (Homo sapiens, UniProt P05067); assay: Aβ aggregation assay (thioflavin T); details: 10 μM peptide, 25 °C, 18 h
T2 construct: purchased AnaSpec
Protocol: Aβ peptides (AnaSpec, Fremont, CA, USA) were dissolved at a concentration of 1 mg/mL in hexafluoroisopropanol (HFIP). Peptides were then mixed at different molar ratios. HFIP was evaporated in a SpeedVac without heating for 15 min. Peptides and mixtures were kept on ice and reconstituted in 50 mM Tris–HCl, 1 mM EDTA. Peptides (final concentration: 10 μM) were added to thioflavin T (final concentration: 2.5 μM; AnaSpec) in a black 96-well plate. Aggregation was monitored on a SpectraMax M5 plate reader (Molecular Devices, Inc.) at a constant temperature of 25 °C using excitation/emission of 440 nm/480 nm. Readings were recorded in triplicate every 10 min for a period of 18 h.

T2 sequence (P05067 672-713 limits assumed): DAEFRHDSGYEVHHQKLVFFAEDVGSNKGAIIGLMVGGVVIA

COc1cc(/C=C2\CCCN([C@@H](C)c3ccc(F)cc3)C2=O)ccc1-n1cnc(C)c1 [E2012]
Lenticular opacity [1]: cause lenticular opacity | Inhibition of DHCR24 (DHCR24 [2]): inhibit | Desmosterol induction (change from DMSO) (DHCR24 [3]; 1 μM): ~ 60 fold | IC50 (DHCR24 [3]; desmosterol accumulation, 2 h): 63 nM

COc1nc(/C=C/c2nc3n(n2)CCC[C@H]3c2ccccc2C(F)(F)F)ccc1-n1cnc(C)c1 [E2212]
DHCR24 off-target activity (DHCR24 [2]): did not have this off-target activity

C[C@H](NC(=O)[C@@H](O)c1cc(F)cc(F)c1)C(=O)N[C@@H]1C(=O)N(C)c2ccccc2-c2ccccc21 [LY-411,575, reference compound]
IC50 (Notch processing): 0.9 nM

Aβ42: Aβ peptide (AnaSpec) used in the aggregation assay
Increase in aggregates over time (thioflavin T fluorescence) (Aβ42): > 15 fold
